Test results as given in ChEMBL document CHEMBL1127255, “Synthesis of the benzofuran analogue of ILV, a new protein kinase C (PKC) activator” (Bioorg Med Chem Lett, 1994).

Molecular target: Protein kinase C alpha type (Homo sapiens, UniProt P17252)
Assay: Displacement of [3H]PDBu from PKC alpha expressed in Sf9 cells

SMILES	Ki
CC(C)[C@H]1C(=O)N[C@H](CO)Cc2coc3cccc(c23)N1C	17.3 nM
CC(C)[C@H]1C(=O)N[C@H](CO)Cc2c[nH]c3cccc(c23)N1C [INDOLACTUM]	11 nM
